According to article PMC5712521, “Dendrogenin A drives LXR to trigger lethal autophagy in cancers” (Nature Communications, 2017):

How the values were obtained:
[1] = tested on: B16F10 cells; assay: RT-qPCR of LXR-responsive genes; assay type: cell-based, mouse; settings: 8 h, 2.5 µM DDA, 10 µM 22(R)HC, 1 µM GW, 100 nM TO, vs vehicle
Method: (§1) Total RNA was extracted from tumor cells or MEFs using an RNA Extraction kit (Qiagen) or Trizol (Invitrogen), respectively, and was quantified with NanoDrop. Complementary DNA (cDNA) synthesis was performed with 1 μg RNA iScript Reverse Transcriptase (Bio-Rad). 25 ng cDNA was amplified using SyBR Supermix (Bio-Rad). RNA expression of the different genes of interest (Supplementary Tables 1, 2) were determined using the ΔΔCT method, where the difference in the threshold cycle (ΔCT) values of the target gene and the housekeeping gene for each sample was normalized to the ΔCT value of the untreated sample.
Supplementary Fig. 4. a R egulat ion of LXR-responsive genes b y D DA and other k nown LXR
ligands in B16F10 and SKMEL- 28 cells transfected with s iRN A targeting LXRβ ( siLXRβ) or
with contro l siRN A scram ble (siSC). Cells were treated for 8 h with either solvent vehicle, 2.5
µM DD A, 10 µM 22(R) hydrox ycholesterol (22(R)HC), 1 µM GW 3965 (GW ) or 100 nM
T O901317 (T O). […]

[2] = tested on: KG1 cells; assay: Immunoblot densitometry; assay type: cell-based, human; settings: 5 µM DDA; for LC3-II protein, densitometry relative to control: KG1, 24 h, 2 µM TO, 2 µM GW, 10 µM 22(R)HC
Method: Immunoblotting was carried out as described previously. Proteins were separated on SDS-PAGE gels, electro-transferred onto polyvinylidene difluoride membranes and incubated overnight at 4 °C with the following antibodies: anti-Atg3, anti-Atg5 (D1G9), anti-Atg7 (D12B11), anti-Beclin (D40C5), anti-caspase-3 (Cell Signaling), anti-Bcl-2 (Millipore), anti-Bax (Millipore), anti-LC3 (Sigma-Aldrich), anti-LXRα (SantaCruz), anti-LXRβ (SantaCruz), anti-Nur77 (Active motif), anti-NOR1 (R&D systems), anti-PARP (Cell Signaling), anti-Vps34 (Cell Signaling), or anti-Actin (Millipore). For visualization, an ECL plus kit (Amersham Biosciences) was used, and chemiluminescence was measured by autoradiography (Supplementary Fig. 9). Specific bands were quantified with ImageQuant software.
(§2) Supplementary Fig. 6. […]
D ata from b, f, g, h, j, p, q ar e the m eans ± S.E.M. of 3 independent experiments performed in triplicate (*P<0.05, **P<0.01, ***P<0.001, t test). Images are representative of 3 independent experim ents.
Supplementary Fig. 7. a Im munoblots of Nur77 and NOR1 proteins in cells treated or not for 24 h with 5 µM DDA. b Real-time PCR of Nur77 and NOR1 expression in KG1 cells stably transfected with control shRNA (clone shCTRL) or with shRNA against LXRβ (clones sh3LXRβ and sh4LXRβ) and treated with 10 µM DDA for 24 h. c Immunoblots of Nur77 and NOR1 protein expression in KG1 cells stably transfected with control shRNA (clone shCTRL), shRNA against Nur77 (shNur77), shRNA against NOR1 (shNOR1), or shRNAs against both Nur77 and NOR1 (shNur77 + shNOR1). d NOD/SCID mice
(n=16- 20 mice/group) engrafted with KG1 cells or HL60 cells were treated with DDA (20 mg/kg/day, i.p.) or solvent vehicle (control). Tumor growth was monitored over time and was analyzed for significance using repeated measures ANOVA (***P<0.001). The mean tumor volumes ± SEM are shown. e Average tumor weight at the end of the experiments in d. *P<0.5, **P<0.01, ANOVA. f Mean tumor volumes measured at the end of the experiments for HL60 and KG1 graf ted into NOD/SCID or NMRI-Fo x1 -nude mice treated with DDA (40 mg/kg/day, p.o. or 20 mg/kg/day, i.p.) or solvent vehicle (control) (n=10- 20 mice per group). Values represent the means ± S.E.M. (**P<0.01, ***P<0.001, ANOVA). g Histochemical analysis of the expression of LC3 and P62 in HL60 tumor sections isolated from NOD/SCID mice treated or not with DDA (20 mg/kg/day, i.p.). h Quantification of LC3 punctate cells in shCTRL and shLXRβ KG1 tumors. i Quantification of DDA levels in tumors 4 h after the final administration of DDA. j Box plot of TCGA RNA-seq data from patients with melanoma showing that LXRβ is the predominant LXR isoform expressed.
***P<0.001. k, l Immunoblotting of the indicated proteins in primary AML cells exposed to vehicle or 5 µM DDA for 24 h. m, n qPCR analysis of the expression of Nur77 and NOR1 in primary AML cells from 10 patients exposed to vehicle or DDA for 24 h. Bars represent S.E.M. (**P<0.01, ***P<0.001, t test). Data from b, h, i represent means ± S.E.M. of triplicate samples (>100 cell analyses per sample), **P<0.01, ***P<0.001, t test. All data or images are representative of 3 independent experiments.

[3] = tested on: HL60 cells; assay: qRT-PCR of Nur77 and NOR1; assay type: cell-based, human; settings: HL60, 24 h; 5 µM DDA, 2 µM TO, 2 µM GW, 10 µM 22(R)HC
Method: as §1, §2
(§3) D ata are expressed relative to the control (solvent vehic le). D ata from b, f, g, h, j, p, q ar e the m eans ± S.E.M. of 3 independent experiments performed in triplicate (*P<0.05, **P<0.01, ***P<0.001, t test). Images are representative of 3 independent experim ents.

[4] = tested on: KG1 cells; assay: qRT-PCR of Nur77 and NOR1; assay type: cell-based, human; settings: KG1, 24 h; 5 µM DDA, 2 µM TO, 2 µM GW, 10 µM 22(R)HC
Method: as §1, §2, §3

| Structure (SMILES) | ABCA1 mRNA ([1]; B16F10, siCT) [fold] | ABCG1 mRNA ([1]; B16F10, siCT) [fold] | ABCG5 mRNA ([1]; B16F10, siCT) [fold] | ABCG8 mRNA ([1]; B16F10, siCT) [fold] | LC3A mRNA ([1]; B16F10, siCT) [fold] | LC3B mRNA ([1]; B16F10, siCT) [fold] | LDLR mRNA ([1]; B16F10, siCT) [fold] | NOR1 mRNA ([1]; B16F10, siCT) [fold] | Nur77 mRNA ([1]; B16F10, siCT) [fold] | SCD1 mRNA ([1]; B16F10, siCT) [fold] | SREBP1 mRNA ([1]; B16F10, siCT) [fold] | SULT2b1b mRNA ([1]; B16F10, siCT) [fold] | ABCA1 mRNA ([1]; B16F10, siLXRβ) [fold] | ABCG1 mRNA ([1]; B16F10, siLXRβ) [fold] | ABCG5 mRNA ([1]; B16F10, siLXRβ) [fold] | ABCG8 mRNA ([1]; B16F10, siLXRβ) [fold] | LC3A mRNA ([1]; B16F10, siLXRβ) [fold] | LC3B mRNA ([1]; B16F10, siLXRβ) [fold] | LDLR mRNA ([1]; B16F10, siLXRβ) [fold] | NOR1 mRNA ([1]; B16F10, siLXRβ) [fold] | other results |
| --- | --- | --- | --- | --- | --- | --- | --- | --- | --- | --- | --- | --- | --- | --- | --- | --- | --- | --- | --- | --- | --- |
| O=C(O)Cc1cccc(OCCCN(Cc2cccc(C(F)(F)F)c2Cl)CC(c2ccccc2)c2ccccc2)c1 [GW, GW3965] | 14.3±1.6 | 2.1±0.4 | 1.9±0.5 | 1.7±0.2 | 1.1±0.1 | 1.1±0.1 | 2.0±0.1 | 1.6±0.2 | 1.0±0.3 | 1.9±0.2 | 3.1±0.2 | 1.2±0.1 | 2.6±0.1 | 1.1±0.2 | 0.9±0.1 | 0.9±0.1 | 1.1±0.2 | 1.1±0.3 | 1.0±0.2 | 1.0±0.1 | Nur77 mRNA ([1]; B16F10, siLXRβ): 0.9±0.2 fold; SCD1 mRNA ([1]; B16F10, siLXRβ): 1.1±0.1 fold; SREBP1 mRNA ([1]; B16F10, siLXRβ): 1.1±0.2 fold; SULT2b1b mRNA ([1]; B16F10, siLXRβ): 1.0±0.1 fold; LC3-II protein, densitometry relative to control [2]: 0.8; NOR1 mRNA levels (Fold over control) [3]: 0.3 fold; Nur77 mRNA levels (Fold over control) [3]: 1.3 fold; NOR1 mRNA levels (Fold over control) [4]: 1.8 fold; Nur77 mRNA levels (Fold over control) [4]: 0.8 fold |
| O=S(=O)(c1ccccc1)N(CC(F)(F)F)c1ccc(C(O)(C(F)(F)F)C(F)(F)F)cc1 [TO, TO901317] | 8.5±1.8 | 1.1±0.3 | 3.6±0.6 | 1.5±0.1 | 1.0±0.3 | 1.3±0.1 | 1.7±0.1 | 1.9±0.2 | 0.9±0.3 | 1.6±0.2 | 3.3±0.1 | 3.2±0.2 | 2.0±0.4 | 1.0±0.1 | 1.0±0.2 | 1.1±0.2 | 1.0±0.2 | 1.2±0.3 | 1.0±0.2 | 0.7±0.3 | Nur77 mRNA ([1]; B16F10, siLXRβ): 0.6±0.2 fold; SCD1 mRNA ([1]; B16F10, siLXRβ): 0.9±0.1 fold; SREBP1 mRNA ([1]; B16F10, siLXRβ): 0.9±0.2 fold; SULT2b1b mRNA ([1]; B16F10, siLXRβ): 1.2±0.3 fold; LC3-II protein, densitometry relative to control [2]: 1.0; NOR1 mRNA levels (Fold over control) [3]: 2.7 fold; Nur77 mRNA levels (Fold over control) [3]: 0.4 fold; NOR1 mRNA levels (Fold over control) [4]: 1.1 fold; Nur77 mRNA levels (Fold over control) [4]: 1.5 fold |
| CC(C)CCC[C@@H](C)[C@H]1CC[C@H]2[C@@H]3C[C@@H](NCCc4cnc[nH]4)[C@@]4(O)C[C@@H](O)CC[C@]4(C)[C@H]3CC[C@]12C [DDA, Dendrogenin A] | 0.4±0.1 | 1.4±0.1 | 3.5±0.1 | 1.6±0.2 | 2.4±0.2 | 1.7±0.1 | 4.2±0.2 | 4.6±0.1 | 6.8±0.2 | 1.6±0.2 | 0.9±0.1 | 1.6±0.1 | 1.2±0.1 | 0.9±0.1 | 1.0±0.1 | 1.2±0.1 | 0.9±0.2 | 1.0±0.2 | 1.0±0.1 | 0.3±0.2 | Nur77 mRNA ([1]; B16F10, siLXRβ): 0.4±0.1 fold; SCD1 mRNA ([1]; B16F10, siLXRβ): 0.9±0.2 fold; SREBP1 mRNA ([1]; B16F10, siLXRβ): 0.9±0.2 fold; SULT2b1b mRNA ([1]; B16F10, siLXRβ): 0.8±0.1 fold; LC3-II protein, densitometry relative to control [2]: 8.3; ATG3 protein, densitometry relative to vehicle ([2]; KG1, 24 h): 2.1; ATG5 protein, densitometry relative to vehicle ([2]; KG1, 24 h): 0.9; ATG7 protein, densitometry relative to vehicle ([2]; KG1, 24 h): 1.2; BECN1 protein, densitometry relative to vehicle ([2]; KG1, 24 h): 0.9; NOR1 protein, densitometry relative to untreated ([2]; KG1, 24 h): 3.1; Nur77 protein, densitometry relative to untreated ([2]; KG1, 24 h): 3.4; NOR1 mRNA levels (Fold over control) [3]: 6.3 fold; Nur77 mRNA levels (Fold over control) [3]: 11.2 fold; NOR1 mRNA levels (Fold over control) [4]: 12.2 fold; Nur77 mRNA levels (Fold over control) [4]: 8.8 fold |
| CC(C)CC[C@@H](O)[C@@H](C)[C@H]1CC[C@H]2[C@@H]3CC=C4C[C@@H](O)CC[C@]4(C)[C@H]3CC[C@]12C [22(R)HC, 22(R)-hydroxycholesterol] | 12.5±2.5 | 0.7±0.1 | 4.2±0.2 | 1.6±0.2 | 1.3±0.1 | 1.1±0.2 | 0.1±0.1 | 2.2±0.3 | 1.4±0.1 | 1.1±0.2 | 2.2±0.2 | 1.5±0.3 | 4.2 ±0.9 | 1.1±0.1 | 2.0±0.5 | 1.0±0.1 | 1.0±0.3 | 1.0±0.1 | 1.1±0.1 | 0.9±0.2 | Nur77 mRNA ([1]; B16F10, siLXRβ): 0.8±0.2 fold; SCD1 mRNA ([1]; B16F10, siLXRβ): 1.2±0.3 fold; SREBP1 mRNA ([1]; B16F10, siLXRβ): 1.2±0.1 fold; SULT2b1b mRNA ([1]; B16F10, siLXRβ): 1.1±0.2 fold; LC3-II protein, densitometry relative to control [2]: 1.5; NOR1 mRNA levels (Fold over control) [3]: 0.7 fold; Nur77 mRNA levels (Fold over control) [3]: 0.8 fold; NOR1 mRNA levels (Fold over control) [4]: 6.3 fold; Nur77 mRNA levels (Fold over control) [4]: 1.1 fold |
